Measurements as given in ChEMBL document CHEMBL1201862, “PubChem BioAssay data set” (2004).
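Cultured in 96-well plates, cells were exposed to test compound for 48 hours across five concentrations. The concentration for 50% growth inhibition is given as GI50.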 The source made the active and inactive calls. Cut-off read from the data, not from the text of the source: active = GI50 up to about 1.1 µM and inactive = higher.

Assays:
Test in all cases: NCI anticancer screen, dose series, 48 h
[1] = tested on: UACC-62
[2] = tested on: U-251
[3] = tested on: SK-OV-3
[4] = tested on: LOX IMVI
[5] = tested on: SNB-19
[6] = tested on: HCC 2998
[7] = tested on: M14
[8] = tested on: UO-31
[9] = tested on: TK-10
[10] = tested on: 786-0
[11] = tested on: RXF 393
[12] = tested on: BT-549
[13] = tested on: SF-539
[14] = tested on: MDA-MB-435
[15] = tested on: SNB-75
[16] = tested on: A549
[17] = tested on: KM12
[18] = tested on: OVCAR-4
[19] = tested on: NCI-H226
[20] = tested on: SK-MEL-2

Measured: GI50

O=C1NN=C(c2ccc(Cl)cc2)CC1C1C(=O)N(c2ccccc2)N=C1c1ccccc1 (stereo not given)
inactive: [1] 26.8 µM | [2] 33 µM | [3] 39.5 µM | [4] 18.2 µM | [5] 33.8 µM | [6] 26.8 µM | [7] 37.8 µM | [8] 21.5 µM | [9] 35.6 µM | [10] 24.7 µM | [11] 22.5 µM | [12] 20 µM | [13] 25.9 µM | [14] 31.6 µM | [15] 23.2 µM | [16] 34 µM | [17] 29 µM | [18] 26.4 µM | [19] 31.8 µM | [20] 25.1 µM

N#CC1CCN2N=C(c3ccccc3)SC12c1ccccc1 (stereo not given)
inactive: [1] 4.91 µM | [2] 44 µM | [3] > 100 µM | [4] 51.9 µM | [5] > 100 µM | [6] 26.7 µM | [7] 45.6 µM | [8] 35.1 µM | [9] > 100 µM | [10] 89.1 µM | [11] 31.3 µM | [12] 43 µM | [13] 78.2 µM | [14] 61.4 µM | [15] > 100 µM | [16] 23.7 µM | [17] 48.6 µM | [18] 76.7 µM | [19] 58.1 µM | [20] 53.3 µM

O=c1[nH]nc(-c2ccccc2)n1/N=C/c1ccc([N+](=O)[O-])cc1
inactive: [1] > 53.8 µM | [2] 4.74 µM | [3] 2.94 µM | [4] 31.1 µM | [5] 7.78 µM | [6] > 45.4 µM | [7] 96.2 µM | [8] 11.2 µM | [9] 20 µM | [10] 6.64 µM | [11] 8.43 µM | [12] > 100 µM | [13] 17.1 µM | [14] > 100 µM | [15] 10.4 µM | [16] 23.9 µM | [17] > 100 µM | [18] 3.85 µM | [19] 27.6 µM | [20] 19.1 µM

CC(=O)O[C@H]1CC[C@@]2(C)C(=CC[C@@H]3[C@@H]2CC[C@]2(C)C(=N/O)/C(=C\c4ccccc4)C[C@@H]32)C1
inactive: [1] 5.94 µM | [2] 24.9 µM | [3] 28.9 µM | [4] 9.14 µM | [5] > 55 µM | [6] 11.9 µM | [7] 4.9 µM | [8] 9.06 µM | [9] 24.2 µM | [10] 13.9 µM | [11] 9.48 µM | [12] 16.5 µM | [13] 15.9 µM | [14] 3.89 µM | [15] 33.6 µM | [16] 14.4 µM | [17] 3.2 µM | [18] 30.1 µM | [19] 12.5 µM | [20] 13 µM

CC(=O)CC1(O)C(=O)c2c(Br)sc(Br)c2C1=O
inactive: [1] 21 µM | [2] 24 µM | [3] 36.8 µM | [4] 17.7 µM | [5] 55.5 µM | [6] 17.8 µM | [7] 17.8 µM | [8] 32.2 µM | [9] 25.9 µM | [10] 23.7 µM | [11] 24.7 µM | [12] 19 µM | [13] 23.6 µM | [14] 20 µM | [15] 59.7 µM | [16] 58.1 µM | [17] 34.3 µM | [18] 18.6 µM | [19] 65.6 µM | [20] 22.2 µM

Cc1ccc([N+](=O)[O-])c2c(NCC(O)CO)ccnc12 (stereo not given)
inactive: [1] 30.3 µM | [2] 93.8 µM | [3] > 100 µM | [4] 37.6 µM | [5] 90.8 µM | [6] 31.8 µM | [7] 51.9 µM | [8] 74.3 µM | [9] 48.2 µM | [10] 30.5 µM | [11] 45.9 µM | [12] 47 µM | [13] 19.3 µM | [14] 71.6 µM | [15] > 100 µM | [16] 25.4 µM | [17] 32.2 µM | [18] 52.8 µM | [19] 73.1 µM | [20] 14.3 µM

O=P1(c2ccccc2)C(c2ccccc2)=CC=C1c1ccccc1
inactive: [1] 18.8 µM | [2] 13.3 µM | [3] 59.4 µM | [4] 10.4 µM | [5] > 100 µM | [6] 25.2 µM | [7] 18.4 µM | [8] 13.7 µM | [9] 13.2 µM | [10] 26 µM | [11] 29.9 µM | [12] 18.8 µM | [13] 59 µM | [14] 12.4 µM | [15] 20.7 µM | [16] 22.6 µM | [17] 16.7 µM | [18] 10.6 µM | [19] 26.4 µM | [20] 11.3 µM

O=S(=O)(Nc1nc2ccccc2nc1N1CCCCCC1)c1ccccc1
inactive: [1] 18.4 µM | [2] 18.6 µM | [3] 28.2 µM | [4] > 100 µM | [5] 28.2 µM | [6] 11.8 µM | [7] 22.5 µM | [8] 12.4 µM | [9] 16.8 µM | [10] > 100 µM | [11] 19.1 µM | [12] 19 µM | [13] 29.2 µM | [14] 23 µM | [15] 21 µM | [16] 24.7 µM | [17] 15.8 µM | [18] 4.05 µM | [19] 27.9 µM | [20] 16.3 µM

NC(=S)NN=Cc1ccccc1OCc1cccc(COc2ccccc2C=NNC(N)=S)n1
inactive: [1] 19.3 µM | [2] 4.55 µM | [3] 9.89 µM | [4] > 100 µM | [5] 9.89 µM | [6] > 100 µM | [7] > 100 µM | [8] 28.2 µM | [9] 14.4 µM | [10] 12.4 µM | [11] 2.4 µM | [12] 13.6 µM | [13] 7.93 µM | [14] > 100 µM | [15] 1.78 µM | [16] > 100 µM | [17] > 100 µM | [18] > 100 µM | [19] > 34.4 µM | [20] 6.89 µM

O=C1NCC(NC(=O)C(F)(F)F)c2c(Br)sc(Br)c21 (stereo not given)
inactive: [1] > 100 µM | [2] > 100 µM | [3] > 100 µM | [4] > 100 µM | [5] > 100 µM | [6] > 100 µM | [7] > 100 µM | [8] > 100 µM | [9] > 100 µM | [10] > 100 µM | [11] > 100 µM | [12] > 100 µM | [13] > 100 µM | [14] > 100 µM | [15] 24.3 µM | [16] > 100 µM | [17] > 100 µM | [18] > 100 µM | [19] > 100 µM | [20] > 100 µM
